pIC50: −log10 of the molar value. Read-outs that look alike come from different tables or passages of the source.
Tests used:
5-HT1A receptors = biological target: T1, 5-HT1A receptors (Rattus norvegicus, UniProt P19327); test: Inhibition of 3H-8-OH-DPAT binding to serotonin 5-HT1A receptors in rat brain in vitro; conditions: for inhibition at 0.1 µM: read-out: 3H 8-OH DPAT (5-HT1A) binding, % inhibition of binding at 100 nM, at 100 nM, rat brain membranes
T1 construct: 5-HT1A receptors in membranes from rat brain minus cerebellum; from tissue; host or cells: rat brain minus cerebellum, membranes
T1 sequence (P19327 1-422): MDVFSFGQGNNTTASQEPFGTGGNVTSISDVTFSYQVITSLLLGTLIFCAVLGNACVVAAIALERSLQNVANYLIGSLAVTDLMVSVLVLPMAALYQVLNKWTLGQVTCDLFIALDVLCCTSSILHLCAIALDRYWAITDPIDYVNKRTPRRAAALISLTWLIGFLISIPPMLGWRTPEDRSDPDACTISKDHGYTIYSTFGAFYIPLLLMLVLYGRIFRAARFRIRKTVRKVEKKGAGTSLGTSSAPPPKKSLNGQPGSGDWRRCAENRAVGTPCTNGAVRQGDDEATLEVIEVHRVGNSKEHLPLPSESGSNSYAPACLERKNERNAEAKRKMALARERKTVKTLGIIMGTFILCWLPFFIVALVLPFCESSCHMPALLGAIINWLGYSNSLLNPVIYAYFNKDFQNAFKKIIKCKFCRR
Protocol: By this method the inhibition by drugs of the binding of the 5-HT1A agonist ^3H-8-OH-DPAT (1 nM) to 5-HT1A receptors in membranes from rat brain minus cerebellum is determined in vitro . Accordingly, this is a test for affinity for the 5-HT1A receptor. The test is performed as described by Hyttel et al., Drug. Dev. Res., 1988, 15, 389-404.

5-HT2A receptors = biological target: T2, 5-HT2A receptors (Rattus norvegicus, UniProt P14842); test: Inhibition of 3H-Ketanserin binding to 5-HT2 receptors in rat cortex in vitro; conditions: 3H-Ketanserin 0.5 nM; for pIC50: membranes from rat cortex, read-out: 3H Ketanserin (5-HT2A) binding, IC50
T2 construct: 5-HT2A receptors in membranes from rat is determined in vitro; from tissue; host or cells: rat cortex membranes
T2 sequence (P14842 whole entry): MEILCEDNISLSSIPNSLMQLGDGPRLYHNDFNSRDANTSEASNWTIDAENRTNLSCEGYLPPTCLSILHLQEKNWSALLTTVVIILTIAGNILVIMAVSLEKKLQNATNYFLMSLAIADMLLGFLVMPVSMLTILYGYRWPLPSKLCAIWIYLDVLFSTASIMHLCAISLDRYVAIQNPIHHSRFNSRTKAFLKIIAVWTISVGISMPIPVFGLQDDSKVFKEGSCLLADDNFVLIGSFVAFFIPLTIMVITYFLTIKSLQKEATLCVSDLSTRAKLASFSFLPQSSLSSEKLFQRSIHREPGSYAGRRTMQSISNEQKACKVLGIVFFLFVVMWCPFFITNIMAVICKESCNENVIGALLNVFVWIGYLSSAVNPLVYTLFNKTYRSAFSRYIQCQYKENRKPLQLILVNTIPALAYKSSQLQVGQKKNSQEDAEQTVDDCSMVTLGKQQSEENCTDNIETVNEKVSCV
Protocol: Inhibition of ^3H-Ketanserin Binding to 5-HT2 Receptors in Rat Cortex in vitro.
By this method the inhibition by drugs of the binding of ^3H-Ketanserin (0.5 nM) to 5-HT2A receptors in membranes from rat is determined in vitro .

[1] = 3H-8-OH-DPAT 1 nM, membranes from rat brain minus cerebellum, read-out: 3H 8-OH DPAT (5-HT1A) binding, IC50

Row | SMILES | melting point | inhibition at 0.1 µM (5-HT1A receptors; 3H-8-OH-DPAT 1 nM) | pIC50 (5-HT2A receptors) | pIC50 (5-HT1A receptors; [1]) | pIC50 (5-HT1A receptors) | inhibition at 0.1 µM (5-HT2A receptors; read-out: 3H Ketanserin (5-HT2A) binding, % inhibition of binding at 100 nM, at 100 nM, rat cortex membranes)
1 | Nc1ccc2c(c1)C(CN1CCN(c3ccc(Cl)c(Cl)c3)CC1)CC2 (stereo not drawn) [Compound 2h, 1-(6-Aminoindan-1-ylmethyl)-4-(3,4-dichlorophenyl)piperazine] | 156 to 158 °C | 19% | 8.39 | – | – | –
2 | CC(=O)Nc1ccc2c(c1)C(CN1CCC(c3ccc(F)cc3)CC1)CC2 (stereo not drawn) [Compound 4a, 1-(6-Acetylaminoindan-1-ylmethyl)-4-(4-fluorophenyl)piperidine] | 159 to 162 °C | – | 8.40 | 7.96 | – | –
3 | CC(=O)Nc1ccc2c(c1)C(CN1CCN(c3ccc(F)cc3)CC1)CC2 (stereo not drawn) [Compound 4b, 1-(6-Acetylaminoindan-1-ylmethyl)-4-(4-fluorophenyl)piperazine] | 179 to 187 °C | – | 8.54 | 7.68 | – | –
4 | CC(=O)Nc1ccc2c(c1)C(CN1CCC(c3ccc(F)cc3)CC1)CS2 (stereo not drawn) [Compound 4c, 1-(5-Acetylamino-2,3-dihydrobenzothiophen-3-ylmethyl)-4-(4-fluorophenyl)piperidine] | 140 to 142 °C | – | 8.64 | 7.55 | – | –
5 | CC(=O)Nc1ccc2c(c1)C(CN1CCN(c3ccc(Cl)cc3)CC1)CC2 (stereo not drawn) [Compound 4d, 1-(6-Acetylaminoindan-1-ylmethyl)-4-(4-chlorophenyl)piperazine] | 191 to 194 °C | – | 8.30 | 7.92 | – | –
6 | CC(=O)Nc1ccc2c(c1)C(CN1CCN(c3cccc(Cl)c3)CC1)CC2 (stereo not drawn) [Compound 4e, 1-(6-Acetylaminoindan-1-ylmethyl)-4-(3-chlorophenyl)piperazine] | 176 to 178 °C | – | 8.30 | 7.42 | – | –
7 | CC(=O)Nc1ccc2c(c1)C(CN1CC=C(c3ccc(F)cc3)CC1)CC2 (stereo not drawn) [Compound 4h, 1-(6-Acetylaminoindan-1-ylmethyl)-4-(4-fluorophenyl)-1,2,3,6-tetrahydropyridine] | 156 to 161 °C | – | 8.55 | 7.96 | – | –
8 | CS(=O)(=O)Nc1ccc2c(c1)C(CN1CCC(c3ccc(F)cc3)CC1)CC2 (stereo not drawn) [Compound 4i, 4-(4-Fluorophenyl)-1-(6-methansulfonylaminoindan-1-ylmethyl)piperidine] | 152 to 155 °C | – | 8.68 | 6.30 | – | –
9 | O=C(Nc1ccc2c(c1)C(CN1CCC(c3ccc(F)cc3)CC1)CC2)C1CC1 (stereo not drawn) [Compound 4j, 1-(6-Cyclopropylcarbonylaminoindan-1-ylmethyl)-4-(4-fluorophenyl)piperidine] | 134 to 140 °C | – | 7.82 | 7.35 | – | –
10 | O=C(Nc1ccc2c(c1)C(CN1CCC(c3ccc(F)cc3)CC1)CC2)C1CCCC1 (stereo not drawn) [Compound 4k, 1-(6-Cyclopentylcarbonylaminoindan-1-ylmethyl)-4-(4-fluorophenyl)piperidine] | 177 to 178 °C | – | 7.52 | 6.62 | – | –
11 | CC(=O)Nc1ccc2c(c1)C(CN1CCC(c3ccc(C)cc3)CC1)CC2 (stereo not drawn) [Compound 4n, 1-(6-Acetylaminoindan-1-ylmethyl)-4-(4-methylphenyl)piperidine] | 173 to 175 °C | – | 8.41 | 7.57 | – | –
12 | CC(=O)Nc1ccc2c(c1)C(CN1CCN(c3ccc(Cl)c(Cl)c3)CC1)CC2 (stereo not drawn) [Compound 4o, 1-(6-Acetylaminoindan-1-ylmethyl)-4-(3,4-dichlorophenyl)piperazine] | 160 to 163 °C | – | 7.29 | 7.96 | – | –
13 | O=C(Nc1ccc(F)cc1)Nc1ccc2c(c1)C(CN1CCC(c3ccc(F)cc3)CC1)CC2 (stereo not drawn) [Compound 5b, 1-[6-(4-Fluorophenyl)aminocarbonylaminoindan-1-ylmethyl]-4-(4-fluorophenyl)-piperidine] | 235 to 238 °C | – | 7.43 | < 4.00 | – | –
14 | CN(C)C(=S)Nc1ccc2c(c1)C(CN1CCC(c3ccc(F)cc3)CC1)CC2 (stereo not drawn) [Compound 6b, 1-(6-Dimethylaminothiocarbonylaminoindan-1-ylmethyl)-4-(4-fluorophenyl)piperidine] | 175 to 180 °C | – | 8.17 | 5.92 | – | –
15 | O=C(Nc1ccc2c(c1)C(CN1CCC(c3ccc(F)cc3)CC1)CC2)N1CCCC1 (stereo not drawn) [Compound 6c, 4-(4-fluorophenyl)-1-[6-(1-pyrrolidinyl)carbonylaminoindan-1-ylmethyl]piperidine] | 190 to 193 °C | – | 8.00 | 5.09 | – | –
16 | CC(=O)Nc1ccc2c(c1)C(CN1CC=C(c3c[nH]c4cc(Cl)ccc34)CC1)CC2 (stereo not drawn) [Compound 11e, 3-[1-(6-Acetylaminoindan-1-ylmethyl)-1,2,3,6-tetrahydropyridin-4-yl]-6-chloro-1H-indole] | – | – | 6.89 | – | 7.57 | –
17 | CC(=O)Nc1ccc2c(c1)C(CN1CCC(c3c[nH]c4cc(Cl)ccc34)CC1)CC2 (stereo not drawn) [Compound 11f, 3-[1-(6-Acetylaminoindan-1-ylmethyl)piperidin-4-yl]-6-chloro-1H-indole] | – | – | 7.68 | 8.10 | – | –
18 | CC(=O)Nc1ccc2c(c1)C(CN1CC=C(c3c[nH]c4ccc(Cl)cc34)CC1)CC2 (stereo not drawn) [Compound 11g, 3-[1-(6-Acetylaminoindan-1-ylmethyl)-1,2,3,6-tetrahydropyridin-4-yl]-5-chloro-1H-indole] | – | – | 6.74 | – | 7.59 | –
19 | O=C1CCCN1c1ccc2c(c1)C(CN1CCC(c3ccc(F)cc3)CC1)CC2 (stereo not drawn) [Compound 12a, 4-(4-Fluorophenyl)-1-[6-(1-pyrrolidin-2-onyl)indan-1-ylmethyl]piperidine] | – | – | 8.46 | 6.47 | – | –
20 | CC(=O)Nc1ccc2c(c1)C(CN1CC=C(c3cn(C)c4cc(Cl)ccc34)CC1)CC2 (stereo not drawn) [Compound 15a, 3-[1-(6-Acetylaminoindan-1-ylmethyl)-1,2,3,6-tetrahydropyridin-4-yl]-6-chloro-1-methyl-1H-indole] | 189 to 193 °C | – | – | 7.04 | – | 25%
21 | CC(=O)Nc1ccc2c(c1)C(CN1CCC(c3cn(C)c4cc(Cl)ccc34)CC1)CC2 (stereo not drawn) [Compound 15b, 3-[1-(6-Acetylaminoindan-1-ylmethyl)piperidin-4-yl]-6-chloro-1-m ethyl-1H-indole] | – | 25% | 6.52 | – | – | –
22 | CNc1ccc2c(c1)C(CN1CCC(c3ccc(F)cc3)CC1)CC2 (stereo not drawn) [Compound 16a, 4-(4-Fluorophenyl)-1-(6-methylaminoindan-1-ylmethyl)piperidine] | – | – | 8.80 | 6.77 | – | –

From US6767907B2, “4-aryl-1-(indanmethyl dihydrobenzofuranmethyl or dihydrobenzothiophenemethyl) piperidines tetrahydropyridines or piperazines” (H. Lundbeck A/S, priority 1994, dated 2004)
